Data as given in patent US20170290814A1, “METHODS OF TREATMENT OF CHOLESTASIS AND FIBROSIS” (GENFIT, priority 2016, published 2017).

Assays:
Format in all cases: cell-based
[1] = tested on: TGFβ1-induced expression of α-SMA protein in NHLF; assay: α-SMA ELISA in TGFβ1-activated normal human lung fibroblasts; conditions: TGFβ1 1 ng/ml, 48 h
Method: Serum-deprived NHLF were preincubated for 1 hour with RM-5061 before the activation with the profibrogenic cytokine TGFβ1 (1 ng/ml). After 48 hours of incubation, the expression of α-SMA was measured by ELISA. The obtained values were transformed into percentage inhibition over TGFβ1 control. Data are presented as mean (quadruplicates)±standard error of the mean (SEM). Statistical analyses were performed by kruskal-Wallis test followed by Dunn's multiple comparison tests, using GraphPad Prism 5.02 software. [*: p<0.05; **: p<0.01; ***: p<0.001 (comparison versus TGFβ1 1 ng/mL group)]. The curve fitting and the calculation of half maximal inhibitory concentration (IC50) were performed with XLFit software 5.3.1.3.
(§1) Cpd.5 was added to serum-deprived lung fibroblasts (NHLF) 1 hour before the activation with TGFβ1 (1 ng/ml). After 48 hours of incubation, the expression of α-SMA was measured by ELISA. The obtained values were transformed into percentage inhibition over TGFβ1 control. Data are presented as mean (triplicates)±standard deviation (SD). Statistical analyses were performed by one-way ANOVA followed by Bonferroni post-hoc tests, using Sigma Plot 11.0 software. [*: p<0.05; **: p<0.01; ***: p<0.001 (comparison versus TGFβ1 1 ng/mL group)].
The Normal Human Lung Fibroblasts (NHLF) (Lonza) were cultured in Fibroblast Basal Medium (FBM) (Lonza cat #CC-3131) that was supplemented with FGM-2 SingleQuots™ Kit (Lonza cat #CC-3132). The complete medium contains 2% fetal bovine serum. For the activation experiments with TGFβ1, the NHLF were plated at a density of 5×10^3 cells per well in 96-well plates. The next day, cell-culture medium was removed, and cells were washed with PBS (Invitrogen cat #14190). NHLF were deprived for 24 hours in serum-free, insulin-free and rhFGF-B-free medium. […]
(§2) The level of α-SMA was measured using a Sandwich ELISA. […]

[2] = tested on: TGFβ1-induced expression of α-SMA protein in human cardiac fibroblasts (NHCF); assay: α-SMA ELISA in TGFβ1-activated normal human cardiac fibroblasts; conditions: TGFβ1 3 ng/ml, 48 h
Method: as §1, with “serum-deprived cardiac” for “serum-deprived lung”, “fibroblasts (NHCF)” for “fibroblasts (NHLF)”, “TGFβ1 (3” for “TGFβ1 (1”, “TGFβ1 3” for “TGFβ1 1”
The Normal Human Cardiac Fibroblasts (ventricle) (NHCF-V) (Lonza) were isolated from normal, adult heart tissue. Cells were cultured in Fibroblast Basal Medium (FBM) (Lonza cat #CC-3131) that was supplemented with FGM™-3 BulletKit™ kit (Lonza cat #CC-4525). The complete medium contains 10% fetal bovine serum. For the activation experiments with TGFβ1, the NHCF-V were plated at a density of 6×10^3 cells per well in 96-well plates. The next day, cell-culture medium was removed, and cells were washed with PBS (Invitrogen cat #14190). NHCF were deprived for 24 hours in serum-free, insulin-free and rhFGF-B-free medium. […]
as §2

[3] = tested on: TGFβ1-induced expression of α-SMA protein in human intestinal fibroblasts (InMyoFib); assay: α-SMA ELISA in TGFβ1-activated human intestinal myofibroblasts; conditions: TGFβ1 3 ng/ml, 48 h
Method: as §1, with “serum-deprived intestinal” for “serum-deprived lung”, “fibroblasts (InMyoFib)” for “fibroblasts (NHLF)”, “TGFβ1 (3” for “TGFβ1 (1”, “TGFβ1 3” for “TGFβ1 1”
The Human Intestinal Myofibroblast (InMyoFib) (Lonza) were cultured in Smooth Muscle Cell Basal Medium (SmBM-2 TM) (Lonza cat #CC-3181) that was supplemented with SmGMTM-2 BulletKit TM (Lonza cat #CC-4149). The complete medium contains 5% fetal bovine serum. For the activation experiments with TGFβ1, the inMyoFib were plated at a density of 10×10^3 cells per well in 96-well plates. The next day, cell-culture medium was removed, and cells were washed with PBS (Invitrogen cat #14190). InMyoFib were deprived for 24 hours in serum-free, insulin-free and rhFGF-B-free medium. […]
as §2

## CC(C)(C)[C@H](N)C(=O)Oc1ccccc1C(=O)Nc1ncc([N+](=O)[O-])s1 [RM-5061, (S)-2-(5-nitrothiazol-2-ylcarbamoyl)phenyl 2-amino-3,3-dimethylbutanoate]
[1]
  effect on TGFβ1-induced α-SMA in NHLF: inhibits
[1]; compared with IC50 in human HSC
  IC50 α-SMA in NHLF: comparable IC50

## [2H]C([2H])([2H])C(=O)Oc1ccccc1C(=O)Nc1ncc([N+](=O)[O-])s1 [Cpd.5, 2-[(5-nitro-1,3-thiazol-2-yl)carbamoyl]phenyl (d3)ethanoate]
[1]
  effect on TGFβ1-induced α-SMA in NHLF: inhibits
[2]
  effect on TGFβ1-induced α-SMA in human cardiac fibroblasts: inhibits
[3]
  effect on TGFβ1-induced α-SMA in human intestinal fibroblasts: inhibits
